# In ChEMBL document CHEMBL1130084, “Further definition of the D1 dopamine receptor pharmacophore: synthesis of trans-6,6a,7,8,9,13b-hexahydro-5H-benzo[d]naphth[2,1-b]azepines as rigid analogues of beta-phenyldopamine” (J Med Chem, 1997):
# Legend:
# [1] = target: D(1A) dopamine receptor (Rattus norvegicus) (UniProt P18901); test: The compound is evaluated for the affinity towards Dopamine receptor D1, using [3H]- SCH 23390 as ligand on rat striatal membranes.
# [2] = target: D(2) dopamine receptor (Rattus norvegicus) (UniProt P61169); test: The compound is evaluated for the affinity towards Dopamine receptor D2, using [3H]-spiperone as ligand on rat striatal membranes.
# D(2) dopamine receptor (Rattus norvegicus), sequence (P61169 whole entry): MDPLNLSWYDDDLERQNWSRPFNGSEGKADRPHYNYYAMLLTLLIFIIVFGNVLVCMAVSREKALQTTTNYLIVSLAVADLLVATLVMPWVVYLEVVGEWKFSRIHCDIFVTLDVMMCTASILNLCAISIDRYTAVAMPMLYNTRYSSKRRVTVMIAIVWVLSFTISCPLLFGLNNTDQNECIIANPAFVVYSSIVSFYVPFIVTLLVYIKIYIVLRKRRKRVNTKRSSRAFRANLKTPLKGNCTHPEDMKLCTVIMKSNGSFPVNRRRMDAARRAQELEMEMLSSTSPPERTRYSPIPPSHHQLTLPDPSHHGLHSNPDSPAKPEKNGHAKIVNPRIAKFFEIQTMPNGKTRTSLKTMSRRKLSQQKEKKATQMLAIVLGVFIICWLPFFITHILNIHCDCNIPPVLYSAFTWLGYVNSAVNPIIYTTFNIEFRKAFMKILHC
# D(1A) dopamine receptor (Rattus norvegicus), sequence (P18901 whole entry): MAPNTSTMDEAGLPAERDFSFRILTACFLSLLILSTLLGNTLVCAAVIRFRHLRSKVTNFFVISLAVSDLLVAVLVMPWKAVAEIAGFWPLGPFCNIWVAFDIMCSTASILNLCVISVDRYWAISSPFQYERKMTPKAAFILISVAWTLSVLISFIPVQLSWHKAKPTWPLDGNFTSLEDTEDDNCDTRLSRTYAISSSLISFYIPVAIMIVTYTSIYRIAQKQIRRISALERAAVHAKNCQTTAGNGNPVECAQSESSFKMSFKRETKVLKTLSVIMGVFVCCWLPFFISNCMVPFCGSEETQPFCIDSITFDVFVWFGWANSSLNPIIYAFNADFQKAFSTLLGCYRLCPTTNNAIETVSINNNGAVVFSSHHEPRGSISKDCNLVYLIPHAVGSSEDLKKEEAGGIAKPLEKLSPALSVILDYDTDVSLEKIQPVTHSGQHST
Structure (SMILES),K0.5 [1] [nM],K0.5 [2] [nM]
CN1Cc2ccccc2[C@@H]2c3cc(O)c(Br)cc3CC[C@H]21,322,–
CN1CCc2ccccc2[C@@H]2c3cc(O)ccc3CC[C@H]21,3950,> 10000
CN1CCc2ccccc2[C@@H]2c3cc(O)c(I)cc3CC[C@H]21,1380,2960
Oc1cc2c(cc1O)[C@H]1c3ccccc3CN[C@@H]1CC2,2.8,–
Oc1cc2c(cc1O)[C@H]1c3ccccc3CCN[C@@H]1CC2,2850,2220
